Results taken from patent publication US8889671B2, “Compounds and methods for treating bacterial infections” (AstraZeneca AB, priority 2013, dated 2014).
In brackets after ≈: the same amount, converted by molar mass. Read-outs that look alike come from different tables or passages of the source.

Legend:
Staphylococcus aureus = assay: Susceptibility testing (MIC) Assay 1, broth microdilution; format: cell-based
Description: (§1) Minimum Inhibitory Concentrations (MICs) were determined by the broth microdilution method in accordance with the Clinical and Laboratory Standards Institute (CLSI) guidelines. In brief, organism suspensions were adjusted to a 0.5 McFarland standard to yield a final inoculum between 3×10^5 and 7×10^5 colony-forming units (CFU)/mL. Bacterial inocula were prepared for most organisms in sterile, cation adjusted Mueller-Hinton Broth (Beckton Dickinson). The streptococci were prepared as above in cation adjusted Mueller-Hinton Broth to which 2.5% lysed horse blood (Hema Resource & Supply Inc.) was added. An inoculum volume of 100 μL was added to wells (using a Tecan EVO robot) containing 2 μL of DMSO containing 2-fold serial dilutions of drug. All inoculated microdilution trays were incubated in ambient air at 35° C. for 18-24 hours. Following incubation, the lowest concentration of the drug that prevented visible growth as read at OD600 nm and confirmed by a visual read using a test reading mirror was recorded as the MIC. Performance of the assay was monitored by the use of laboratory quality-control strains and commercially available control compounds with defined MIC spectrums, in accordance with CLSI guidelines. Table 1 provides the MIC results (μM) of Examples 1-77 tested in Assay 1. Table 2 provides the MIC (μg/mL) results of Examples 78-80 tested in Assay 1.

Streptococcus pneumoniae = assay: as above; format: cell-based
Description: as §1

Streptococcus pyogenes = assay: as above; format: cell-based; details: Streptococcus pyrgenes, in vivo strain, read-out: Spy MIC
Description: as §1

Escherichia coli = assay: Susceptibility testing (MIC) Assay 2, broth microdilution; format: cell-based; details: K12, read-out: Eco MIC
Description: (§2) Minimum Inhibitory Concentrations (MICs) were determined by the broth microdilution method in accordance with the Clinical and Laboratory Standards Institute (CLSI) guidelines. In brief, organism suspensions were adjusted to a 0.5 McFarland standard to yield a final inoculum between 3×10^5 and 7×10^5 colony-forming units (CFU)/mL. Bacterial inocula were generally prepared in sterile, cation adjusted Mueller-Hinton Broth (Becton Dickinson) which included Escherichia coli, Klebsiella pneumoniae, and Pseudomonas aeruginosa. Haemophilus influenzae bacterial inocula were prepared in sterile, cation adjusted Mueller-Hinton Broth (Becton Dickinson) containing 0.5% yeast extract (Becton Dickinson) plus 30 mL of 15 μg/mL Bovine Hematin stock (Sigma), and 3 mL of 15 μg/mL β-nicotinamide adenine dinucleotide (Sigma). Strains of Neisseria were tested for MICs using agar dilution methodology in accordance with CLSI guidelines. For broth microdilution testing, an inoculum volume of 100 μL was added to wells (using a Tecan EVO robot) containing 2 μL of DMSO containing 2-fold serial dilutions of drug. All inoculated microdilution panels were incubated in ambient air at 35° C. for 18-24 hours. Following incubation, the lowest concentration of the drug that prevented visible growth as read at OD600 nm and confirmed by a visual read using a test reading mirror was recorded as the MIC. Performance of the assay was monitored by the use of laboratory quality-control strains and commercially available control compounds with defined MIC spectrums, in accordance with CLSI guidelines. Table 3 provides the MIC results (μM) of Examples 1-77 tested in Assay 2. Table 4 provides the MIC (μg/mL) results of Examples 78-80 tested in Assay 2.

Haemophilus influenzae = assay: as above; format: cell-based; details: ATCC 51907, in vivo strain, read-out: Hin MIC
Description: as §2

Klebsiella pneumoniae = assay: as above; format: cell-based; details: clinical isolate, mucoid, read-out: Kpn MIC
Description: as §2

Pseudomonas aeruginosa = assay: as above; format: cell-based; details: for MIC: PAO1, read-out: Pae MIC
Description: as §2

[1] = biological target: Escherichia coli DNA gyrase A/B tetramer (Escherichia coli (strain K12), UniProt P0AES4+P0AES6); assay: DNA gyrase supercoiling activity fluorescence polarisation assay; format: biochemical; details: 0.3 mM ATP
Description: In a black, 384-well polystyrene assay plate, 30 microliters/well of 5 nM Escherichia coli DNA gyrase A/B tetramer and 130 micrograms/mL of topologically relaxed plasmid containing the triplex-forming sequence
in an assay buffer consisting of 35 mM Tris-HCl (pH 7.5), 24 mM KCl, 4 mM MgCl2, 2 mM dithiothreitol, 1.8 mM spermidine, 5% (v/v) glycerol, 200 nM bovine serum albumin, 0.8% dimethylsulfoxide, and 0.3 mM ATP were incubated at ambient temperature for (typically 30 minutes) in the absence or presence of 5-10 different concentrations of test compound. The supercoiling reactions were quenched by the addition of 10 microliters/well of 40 nM oligodeoxynucleotide probe in 3× triplex-forming buffer consisting of 150 mM NaCl, and 150 mM sodium acetate at pH 3.5. The oligodeoxynucleotide probe was 5′-BODIPY-FL-labeled
After 60 minutes, the fluorescence anisotropy of the BODIPY-FL was measured in a Tecan Ultra plate reader, using 485 nm excitation and 535 nm emission filters equipped with polarizers. The IC50 was determined by nonlinear regression using two control reactions.

[2] = Staphylococcus aureus, Staphylococcus aureus in vivo strain, MSQS, read-out: Sau(d) MIC
[3] = Staphylococcus aureus, in vivo strain, MRQR, read-out: Sau(e) MIC
[4] = Staphylococcus aureus, serum, read-out: Sau(f) MIC
[5] = in vivo strain (footnote b), read-out: Spn(b) MIC
[6] = in vivo strain (footnote c), read-out: Spn(c) MIC
[7] = ATCC51907, Haemophilus influenzae
[8] = Eco Gyr FP Mean IC50, E. coli DNA gyrase supercoiling

Row | SMILES | MIC (Staphylococcus aureus; [2]) | MIC (Staphylococcus aureus; [3]) | MIC (Staphylococcus aureus; [4]) | MIC (Streptococcus pneumoniae; [5]) | MIC (Streptococcus pneumoniae; [6]) | MIC (Streptococcus pyogenes; Streptococcus pyogenes) | MIC (Escherichia coli) | MIC (Haemophilus influenzae; [7]) | MIC (Klebsiella pneumoniae) | MIC (Pseudomonas aeruginosa) | IC50 [1, 8] | MIC (Staphylococcus aureus; Staphylococcus aureus in vivo strain, MSQS, read-out: Sau(d) MIC) | MIC (Streptococcus pyogenes) | MIC (Haemophilus influenzae) | Pae MIC (Pseudomonas aeruginosa; PAO1) | IC50 ([1]; E. coli DNA gyrase supercoiling, read-out: Eco Gyr FP Mean IC50)
1 | C[C@@H]1CN2c3c(cc4c(N5C[C@@H](CO)OC5=O)noc4c3F)CC3(C(=O)NC(=O)NC3=O)[C@H]2[C@H](C)O1 [Example 26, (2R,4S,4aS)-11-Fluoro-8-((S)-5-(hydroxymethyl)-2-oxooxazolidin-3-yl)-2,4-dimethyl-2,4,4a,6-tetrahydro-1H,1′H-spiro[isoxazolo[4,5-g][1,4]oxazino[4,3-a]quinoline-5,5′-pyrimidine]-2′,4′,6′(3′H)-trione] | 2.2 µM (≈ 1.11 µg/mL) | 12 µM (≈ 6.04 µg/mL) | 1.6 µM (≈ 0.806 µg/mL) | 0.28 µM (≈ 0.141 µg/mL) | 0.55 µM (≈ 0.277 µg/mL) | < 0.2 µM | 25 µM (≈ 12.6 µg/mL) | < 0.2 µM | > 200 µM | > 200 µM | 170 nM | – | – | – | – | –
2 | C[C@@H]1CN2c3c(cc4c(N5CC(C)(C)OC5=O)noc4c3F)CC3(C(=O)NC(=O)NC3=O)[C@H]2[C@H](C)O1 (racemic) [Example 12, (2R,4S,4aS)-8-(5,5-Dimethyl-2-oxo-1,3-oxazolidin-3-yl)-11-fluoro-2,4-dimethyl-1,2,4,4a-tetrahydro-2′H,6H-spiro[1,4-oxazino[4,3-a][1,2]oxazolo[4,5-g]quinoline-5,5′-pyrimidine]-2′,4′,6′(1′H,3′H)-trione] | 1.6 µM (≈ 0.802 µg/mL) | 3.1 µM (≈ 1.55 µg/mL) | 25 µM (≈ 12.5 µg/mL) | 6.2 µM (≈ 3.11 µg/mL) | 6.2 µM (≈ 3.11 µg/mL) | 3.1 µM (≈ 1.55 µg/mL) | 100 µM (≈ 50.1 µg/mL) | 3.1 µM (≈ 1.55 µg/mL) | > 200 µM | > 200 µM | 3200 nM | – | – | – | – | –
3 | CO[C@@H](C)[C@@H]1COC(=O)N1c1noc2c(F)c3c(cc12)CC1(C(=O)NC(=O)NC1=O)[C@H]1[C@H](C)O[C@H](C)CN31 [Example 60] | 0.78 µM (≈ 0.415 µg/mL) | 1.6 µM (≈ 0.85 µg/mL) | 1.6 µM (≈ 0.85 µg/mL) | 1.6 µM (≈ 0.85 µg/mL) | 1.6 µM (≈ 0.85 µg/mL) | 1.6 µM (≈ 0.85 µg/mL) | 100 µM (≈ 53.1 µg/mL) | 1.6 µM (≈ 0.85 µg/mL) | > 200 µM | > 200 µM | 950 nM | – | – | – | – | –
4 | C[C@@H]1CN2c3c(cc4c(N5C[C@H](C#N)OC5=O)noc4c3F)CC3(C(=O)NC(=O)NC3=O)[C@H]2[C@H](C)O1 [Example 75, (5R)-3-[(2R,4S,4aS)-11-Fluoro-2,4-dimethyl-2′,4′,6′-trioxo-1,1′,2,3′,4,4′,4a,6′-octahydro-2′H,6H-spiro[1,4-oxazino[4,3-a][1,2]oxazolo[4,5-g]quinoline-5,5′-pyrimidin]-8-yl]-2-oxo-1,3-oxazolidine-5-carbonitrile] | 0.28 µM (≈ 0.14 µg/mL) | 2.2 µM (≈ 1.1 µg/mL) | 0.39 µM (≈ 0.194 µg/mL) | 0.78 µM (≈ 0.389 µg/mL) | 1.62 µM (≈ 0.807 µg/mL) | 0.55 µM (≈ 0.274 µg/mL) | 100 µM (≈ 49.8 µg/mL) | 0.78 µM (≈ 0.389 µg/mL) | > 200 µM | > 200 µM | 710 nM | – | – | – | – | –
5 | C[C@@H]1CN2c3c(cc4c(N5C[C@@H](CF)OC5=O)noc4c3F)CC3(C(=O)NC(=O)NC3=O)[C@H]2[C@H](C)O1 [Example 19] | 0.14 µM (≈ 0.0708 µg/mL) | 0.78 µM (≈ 0.394 µg/mL) | 0.28 µM (≈ 0.142 µg/mL) | < 0.2 µM | 0.24 µM (≈ 0.121 µg/mL) | < 0.2 µM | 8.8 µM (≈ 4.45 µg/mL) | 0.28 µM (≈ 0.142 µg/mL) | 200 µM (≈ 101 µg/mL) | > 200 µM | 160 nM | – | – | – | – | –
6 | C[C@@H]1CN2c3c(cc4c(N5C(=O)OC[C@H]5c5ccccn5)noc4c3F)CC3(C(=O)NC(=O)NC3=O)[C@H]2[C@H](C)O1 [Example 55, (2R,4S,4aS)-11-Fluoro-2,4-dimethyl-8-((R)-2-oxo-4-(pyridin-2-yl)oxazolidin-3-yl)-2,4,4a,6-tetrahydro-1H,1′H-spiro[isoxazolo[4,5-g][1,4]oxazino[4,3-a]quinoline-5,5′-pyrimidine]-2′,4′,6′(3′H)-trione] | 0.78 µM (≈ 0.429 µg/mL) | 1.6 µM (≈ 0.881 µg/mL) | 1.6 µM (≈ 0.881 µg/mL) | 0.78 µM (≈ 0.429 µg/mL) | 0.78 µM (≈ 0.429 µg/mL) | 0.78 µM (≈ 0.429 µg/mL) | 50 µM (≈ 27.5 µg/mL) | 0.39 µM (≈ 0.215 µg/mL) | > 200 µM | > 200 µM | 150 nM | – | – | – | – | –
7 | CC[C@H]1CN(c2noc3c(F)c4c(cc23)CC2(C(=O)NC(=O)NC2=O)[C@H]2[C@H](C)O[C@H](C)CN42)C(=O)O1 [Example 13, (2R,4S,4aS)-8-[(5S)-5-Ethyl-2-oxo-1,3-oxazolidin-3-yl]-11-fluoro-2,4-dimethyl-1,2,4,4a-tetrahydro-2′H,6H-spiro[1,4-oxazino[4,3-a][1,2]oxazolo[4,5-g]quinoline-5,5′-pyrimidine]-2′,4′,6′(1′H,3′H)-trione] | 0.39 µM (≈ 0.196 µg/mL) | 0.78 µM (≈ 0.391 µg/mL) | 0.78 µM (≈ 0.391 µg/mL) | 0.78 µM (≈ 0.391 µg/mL) | 0.78 µM (≈ 0.391 µg/mL) | 0.39 µM (≈ 0.196 µg/mL) | 12 µM (≈ 6.02 µg/mL) | 0.78 µM (≈ 0.391 µg/mL) | 200 µM (≈ 100 µg/mL) | > 200 µM | 510 nM | – | – | – | – | –
8 | C[C@@H]1CN2c3c(cc4c(N5C(=O)OC[C@H]5C5CCOCC5)noc4c3F)CC3(C(=O)NC(=O)NC3=O)[C@H]2[C@H](C)O1 [Example 27] | – | 3.1 µM (≈ 1.73 µg/mL) | 1.6 µM (≈ 0.892 µg/mL) | 0.78 µM (≈ 0.435 µg/mL) | 0.78 µM (≈ 0.435 µg/mL) | – | 100 µM (≈ 55.8 µg/mL) | – | >200 µM | – | – | 0.78 µM (≈ 0.435 µg/mL) | 0.78 µM (≈ 0.435 µg/mL) | 0.39 µM (≈ 0.217 µg/mL) | >200 µM | 530 nM
